Assay results published in US9914711B2 (priority 2013, dated 2018).

Legend:
C. violaceum CV026 [1] = assay: Measurement of IC50 of compounds having an inhibitory effect on C. violaceum quorum sensing (purple pigment absorbance at 585 nm); assay type: cell-based; settings: Chromobacterium violaceum, CV026, read-out: IC50 of compounds having bacterial quorum sensing inhibitory activity
Experimental: 2. Measurement of IC50 of Compounds Having an Inhibitory Effect on C. violaceum Quorum Sensing
2.1 The wells of a 12-well plate were marked as initial concentration, 2, 4, 8, 16, 32, 64, 128, 256, DMSO group, and a blank control group from left to right and from up to bottom, respectively.
2.2 The monoclonal C. violaceum CV026 grew on LB solid plate was cultured to exponational phase in a 5 ml fresh LB liquid culture medium, 50 μl was then taken for seeding in a 5 ml LB culture medium, and was cultured until the optical density OD value was about 1.0 at 585 nm; the culture was then mixed well with LB culture medium at a ratio of 1:9 by volume (with OD of about 0.15), and was added to a 12-well plate in an amount of 2 ml/well.
2.3 The compounds preliminarily screened to have quorum sensing inhibitory activity were dissolved respectively in DMSO (at a concentration of 0.065M), and then 10 μl was taken into 10 μl DMSO solution to achieve the purpose of 2-fold dilution, and so on. Each compound was gradiently diluted to a highest fold of 256 (gradient dilution of 2, 4, 8, 16, 32, 64, 128, 256 fold).
2.4 To each well, 15 μl 1000-fold diluted inducer C6-HSL (initial concentration of 0.125M) and 8 μl compound solution at each diluted gradient was added; to DMSO control group, 8 μl DMSO was added; to a blank control group, 8 μl LB culture medium was added. Finally, it was ensured that 2 ml culture in each of the 12-well plate was mixed well.
2.5 The 12-well plate was placed in a 30° C. shaker at 130 rpm and was cultured for 10-12 h.
2.6 After the culture was finished, 1 ml culture was taken from each well and was put in a 1.5 ml EP tube and then was centrifugated at 12000 rpm for 10 mins. […] 200 μl supernatant pigment was put in a 96-well culture plate, and was measured for absorbance value at 585 nm by a Microplate Reader, […] the absorbance value and the corresponding concentration were plotted to get the IC50 value.

C. violaceum CV026 [2] = assay: Preliminary screening of bacterial quorum sensing agonistic / inhibitory activity on LB plate (purple stain / white circle); assay type: cell-based; settings: for Regulatory activity (bacterial quorum sensing regulatory activity): 1 μl of 0.065M compound spotted on plate, inhibitory screen with inducer C6-HSL, 30° C., 16-18 h; for Effect on bacterial quorum sensing (summary in words): summary of the activity evaluation experiments
Experimental: 1.1 Preparation work: different compounds to be tested (Compounds 1-40 prepared in Example 1-40) were weighted and then were dissolved in 200 μl DMSO (dimethyl sulfoxide) to prepare a solution at a concentration of 0.065M. 5.0 mg inducer, N-hexanoyl homoserine lactone (C6-HSL, purchased from Sigma Company), was weighted and was dissolved in 200 μl DMSO (at a concentration of 0.125M), and the compounds and the inducer were stored at 4 for further use. C. violaceum CV026 (donated by Professor McLean J C from Texas State University) in LB culture medium (LB culture medium consisting of 1% (percentage by mass) tryptone, 0.5% (percentage by mass) yeast extract, 1% (percentage by mass) NaCl and water) was cultured under shaking in a shaker at 30, 200 rpm to get the culture medium for further use.
1.2 Method for preliminary screening of compounds having agonistic activity: 400 μl C. violaceum CV026 (at a bacterial concentration of 1×10^8/ml) was added to 5 ml melted semi-solid LB culture medium, and was mixed well; the mixed culture medium was poured into a solid LB plate; when the mixed culture medium was solidified on the plate, lattice was made thereon; 1 μl of the dissolved compounds to be tested (Compounds 1-40 in Examples 1-40, at a concentration of 0.065M) was spotted on the plate; when the compounds on the plate was dried in air, the plate was put in a 30° C. oven upside down and was cultured for a period of 16-18 h. If the compound to be tested has an agonistic effect on C. violaceum CV026 on the LB plate, purple stain will be induced on the LB plate. The agonistic activity of a compound is determined depending on whether purple stain is induced for C. violaceum CV026 on LB plate as well as the purple depth.
1.3 Method for preliminary screening of compounds having inhibitory activity: the inducer C6-HSL was diluted gradiently to 1000 times by means of 2-fold dilution; 15 μl diluted inducer and 400 μl C. violaceum CV026 in exponential phase (at a bacterial concentration of 1×10^8/ml) were mixed well and then were added to a 5 ml melted semi-solid LB culture medium; the mixture of inducer, C. violaceum, and semi-solid LB was poured onto a solid LB plate; when the mixture was solidified on the plate, lattice was made thereon: 1 μl of the dissolved compounds to be tested (Compounds 1-40 in Examples 1-40, at a concentration of 0.065M) was spotted on the plate; when the compounds on the plate were dried in air, the plate was put in a 30° C. oven upside down and was cultured for a period of 16-18 h. If the compound to be tested has an inhibitory effect on C. violaceum CV026 on the LB plate, white circle will appear on the LB plate. The inhibitory activity of a compound is preliminary determined depending on the size of the white circle appeared after C. violaceum CV026 was inhibited on LB plate.
It is found after preliminary screening that 22 compounds according to the invention have bacterial quorum sensing regulatory activity, and the screening result was shown in Table 1.

SMILES | IC50 (C. violaceum CV026 [1]) | melting point | Regulatory activity (bacterial quorum sensing regulatory activity) (C. violaceum CV026 [2]) | Effect on bacterial quorum sensing (summary in words) (C. violaceum CV026 [2])
O=C(NN1CCOC1=O)c1ccc([N+](=O)[O-])cc1 [Compound 7, 4-nitro-N-(2-oxo-oxazolidin-3-yl)benzamide] | 18.7 ± 2.59 µM | 206 to 208 °C | − | inhibitory effect on bacterial quorum sensing
CCc1ccc(C(=O)NN2CCOC2=O)cc1 [Compound 11, 4-ethyl-N-(2-oxo-oxazolidin-3-yl)benzamide] | 13.9 ± 4.21 µM | 170 to 173 °C | − | inhibitory effect on bacterial quorum sensing
O=C(NN1CCOC1=O)c1ccc(Br)cc1 [Compound 12, 4-bromo-N-(2-oxo-oxazolidin-3-yl)benzamide] | 7.85 ± 1.71 µM | 202 to 204 °C | ± | both an agonizing effect and an inhibitory effect
